{"source": "patent US20260076937A1", "about": "“COMPOSITION FOR PREVENTING OR TREATING AUTOIMMUNE DISEASES COMPRISING A BCAT1 INHIBITOR” (Seoul National University R&DB Foundation, priority 2024, published 2026)", "key": {"HIF-1α [1]": {"test_system": "HIF-1α", "test": "HIF-1α immunoblot in TCR-stimulated CD4+ memory T cells", "type": "cell-based, human", "conditions": "for HIF-1α expression reduced by Bi2 (effect of added substance): Bi2 plus HMB 0.4 mM, CoCl2, VH298 or MG132; for HIF-1α protein expression: TCR-stimulated CD4+ memory T cells, Bi2 10 μM, CoCl2 100 μM, VH298 100 μM, MG132 5 μM", "procedure": "(§1) Cells were cultured in radioimmunoprecipitation assay (RIPA) buffer (150 mM NaCl, 10 mM Na2HPO4, pH 7.2, 1% Nonidet P-40, 0.5% deoxycholate) containing phenylmethylsulfonyl fluoride (PMSF; Millipore Sigma, Burlington, MA), EDTA, protease and phosphatase inhibitor cocktail (Thermo Fisher Scientific) to extract total protein. Proteins were separated on 8-10% SDS-polyacrylamide gels and blotted onto polyvinylidene difluoride (PVDF) membranes (Bio-Rad, Hercules, CA) followed by 5% BSA in Tris buffered saline (TBS) with 0.1% Tween 20 and blocked for 1 hour. Membranes were cultured overnight with anti-human SLC7A5, anti-BCAT, anti-phospho-p70S6K, anti-p70S6K, anti-HIF-1α (all provided by Cell Signaling Technology, Danvers, MA) primary antibodies at 4° C., followed by culture with HRP-conjugated secondary antibodies for 1 hour at room temperature. Membranes were developed using SuperSignal West Femto Maximum Sensitivity Substrate or SuperSignal West Pico PLUS Chemiluminescent Substrate system (Thermo Fisher Scientific)."}, "[2]": {"test_system": "TCR-stimulated human CD4+ T cells", "test": "3H-leucine uptake assay", "type": "cell-based", "conditions": "BCH 50 mM, JPH203 10 μM, LβhL 400 mg/L", "procedure": "After the culture medium was removed, the cells were cultured in HBSS for 10 minutes. ^3H-leucine or ^3H-methionine (Perkin Elmer, Waltham, MA) uptake assays were initiated by culturing cells for 15 min in HBSS with 0.5-1 μCi. Cells were separated with 1 M NaOH after three washes with ice-cold HBSS. Radioactivity was measured using a beta scintillation counter MicroBeta® (Perkin Elmer)."}, "[3]": {"test_system": "TCR-stimulated human CD4+ naive T cells", "test": "Cytokine ELISA of culture supernatants, CD4+ naive T cells", "type": "cell-based", "conditions": "TCR stimulation 3 days"}, "[4]": {"test_system": "TCR-stimulated human CD4+ memory T cells", "test": "Cytokine ELISA of culture supernatants, CD4+ memory T cells", "type": "cell-based", "conditions": "for IFN-γ production by CD4+ memory T cells / IL-17A production by CD4+ memory T cells: TCR stimulation 3 days, Bi2 10 μM, JPH203 10 μM, LβhL 400 mg/L; for IFN-γ production by CD4+ memory T cells: HMB 0.4 mM, VH298 100 nM; for IL-17A production by CD4+ memory T cells: statin 10 μM", "procedure": "The study protocol was reviewed and approved by the Institutional Review Board (IRB) of Seoul National University Hospital. Peripheral blood was drawn from healthy controls (HC) after obtaining written consent from study participants, and all experiments were performed according to approved guidelines. Peripheral blood mononuclear cells (PBMCs) were isolated from peripheral blood using density gradient centrifugation (Biocoll separation solution; BIOCHROM Inc., Cambridge, UK). Total CD4^+ T cells, naive T cells and memory CD4^+ T-cells were isolated in a negative selection manner from CD14^+ monocyte depleted PBMCs using the MojoSort™ Human Total CD4^+ T-Cells, CD4^+ naive T-cells and CD4^+ memory T-cell isolation kit (BioLegend, San Diego, Calif.). Purified T cells were cultured in RPMI 1640 medium (hereinafter, “complete RPMI 1640”) supplemented with 10% fetal bovine serum (FBS), 1% penicillin/streptomycin, and 1% L-glutamine. Cells were stimulated with anti-CD3/CD28-coated microbeads (1:10 ratio, Dynabeads T-Activator CD3/CD28, Thermo Fisher Scientific, Waltham, MA) in the presence of designated chemical inhibitors or reagents including 2-amino-2-norbornanecarboxylic acid (BCH), JPH203, acetate, MG132, VH298, cobalt chloride (CoCl2), cycloheximid (CHX) (all provided by Sigma-Aldrich, St. Louis, MO), BCAT1 inhibitor 2 (Bi2: provided by Cayman Chemical, Ann Arbor, MI), 3-hydroxy-3-methylbutyric acid (HMB; provided by Thermo Fisher Scientific, Waltham, MA), and L-β-homoleucine (LβhL; provided by Santa Cruz Biotechnology, Heidelberg, Germany). In some experiments, a customized medium depleted of five essential amino acids (leucine, valine, isoleucine, phenylalanine, methionine) was used (Welgene, Gyeongsan, South Korea). All amino acids used (L-leucine, L-valine, L-isoleucine, L-phenylalanine, L-methionine) were purchased from Sigma-Aldrich.\nIL-17A and IFN-γ amounts in culture supernatants were quantified using commercially available human ELISA kits (IL-17A ELISA kit by eBioscience and human IFN-γ ELISA MAX Deluxe by BioLegend) according to the manufacturer's instructions. Light density was measured using an Infinite M200 instrument (Tecan, Männedorf, Switzerland)."}, "[5]": {"test_system": "human CD4+ naive and memory T cells", "test": "CFSE dilution proliferation assay", "type": "cell-based", "conditions": "anti-CD3/CD28 microbeads; Bi2 10 μM, JPH203 10 μM, LβhL 400 mg/L", "procedure": "To analyze T cell proliferative capacity, purified isolated human CD4+ T cells were labeled with 1 μM carboxyfluorescein succinimidyl ester (CFSE; Invitrogen, Waltham, MA, USA) and then stimulated with anti-CD3/CD28 antibody coated microbeads for 4 days at 37° C. Cells were stained with 7AAD (BD Biosciences) for 10 minutes to distinguish dead cells and the extent of CFSE dilution in 7AAD-cells was measured by BD LSRFortessa to analyze proliferative capacity. Antibodies listed in Table 2 and previously known BD LSRFortessa cell analyzers were used."}, "[6]": {"test_system": "human CD4+ memory T cells", "test": "Cholesterol analysis in cell lysates", "type": "cell-based", "conditions": "Bi2 10 μM plus HMB 0.4 mM", "procedure": "Total cholesterol amount in cultured cells was determined using a fluorometric Amplex™ Red Cholesterol Assay Kit (Thermo Fisher Scientific) according to the manufacturer's instructions."}, "[7]": {"conditions": "oral administration, healthy adults; cited from earlier work"}, "HIF-1α [8]": {"test_system": "HIF-1α", "test": "RT-qPCR of HIF-1α and HIF-1α target genes in CD4+ memory T cells", "type": "cell-based, human", "conditions": "HMB 0.4 mM", "procedure": "Total RNA was prepared using TRIzol reagent (Life Technologies, Grand Island, NY), followed by cDNA synthesis (Promega, Madison, WI), followed by real-time quantitative RT-PCR with a CFX system (Bio-Rad, Hercules, CA) using SensiFAST SYBR® Lo-ROX (Bioline, London. UK). Gene expression levels were normalized for […] expression using the comparative CT method (ΔΔCT)."}, "mTORC1": {"test_system": "mTORC1", "test": "Phospho-p70-S6K immunoblot (mTORC1 activity) in CD4+ memory T cells", "type": "cell-based, human", "conditions": "HMB 0.4 mM, TCR stimulation 1 hour", "procedure": "as §1"}, "EAE mice": {"test_system": "EAE mice", "test": "Experimental autoimmune encephalomyelitis (EAE) model", "type": "in vivo, mouse"}, "[9]": {"conditions": "Bi2 10 μM plus acetate, HMB or VH298, 3 days"}, "[10]": {"conditions": "Bi2 10 mg/kg or LβhL 1 g/kg i.p."}}, "note": "Entries after “also recorded” stand apart in the source; their conditions may differ. Like-named read-outs stand apart in the source and are kept apart here. Residues, ends and D or L forms follow the SMILES beside them. *: point of attachment. Cbz = O=C(OCc1ccccc1)*", "data": [{"smiles": "[Cl][Co][Cl]", "note": "[CoCl2, cobalt chloride]", "values": [{"measurement": "HIF-1α expression reduced by Bi2 (effect of added substance)", "setting": "HIF-1α [1]", "value": "none of these inhibitors affected"}, {"measurement": "HIF-1α protein expression", "setting": "HIF-1α [1]", "value": "accumulation of HIF-1α"}]}, {"smiles": "NC1(C(=O)O)CC2CCC1C2", "note": "(centres unmarked) [BCH, 2-amino-2-norbornanecarboxylic acid]", "values": [{"measurement": "3H-leucine uptake", "setting": "[2]", "value": "greatly reduced"}]}, {"smiles": "Nc1cc(COc2c(Cl)cc(C[C@H](N)C(=O)O)cc2Cl)c2oc(-c3ccccc3)nc2c1", "note": "[JPH203]", "values": [{"measurement": "3H-leucine uptake", "setting": "[2]", "value": "greatly reduced"}, {"measurement": "IL-2 production by CD4+ naive T cells", "setting": "[3]", "value": "not affected"}, {"measurement": "IFN-γ production by CD4+ memory T cells", "setting": "[4]", "value": "decreased significantly"}, {"measurement": "IL-17A production by CD4+ memory T cells", "setting": "[4]", "value": "decreased significantly"}, {"measurement": "proliferation (CFSE dilution)", "setting": "[5]", "value": "completely blocked"}]}, {"smiles": "CC(=O)O", "note": "[acetate]", "values": [{"measurement": "IL-17A production in Bi2-treated CD4+ memory T cells (effect of added substance)", "setting": "[4]; [9]", "value": "dose-dependently reduced"}, {"measurement": "IFN-γ production in Bi2-treated CD4+ memory T cells (effect of added substance)", "setting": "[4]; Bi2 10 μM plus acetate, 3 days", "value": "upregulated"}]}, {"smiles": "CC(C)(O)CC(=O)O", "note": "[HMB, 3-hydroxy-3-methylbutyric acid]", "values": [{"measurement": "cholesterol in Bi2-treated cells (effect of HMB supplementation)", "setting": "[6]", "value": "inhibited; also recorded: decreased"}, {"measurement": "plasma half-life", "setting": "[7]", "value": "about 2.5 hours"}, {"measurement": "plasma level achievable", "setting": "[7]", "value": 400, "unit": "µM"}, {"measurement": "time to peak plasma level", "setting": "[7]", "value": "60 to 120", "unit": "min"}, {"measurement": "Bi2-reduced HIF-1α mRNA (effect of HMB supplementation)", "setting": "HIF-1α [8]", "value": "rapidly abolished"}, {"measurement": "Bi2-reduced SCL2A1, LDHA and PGK1 mRNA (effect of HMB supplementation)", "setting": "HIF-1α [8]; 72 hours of TCR stimulation", "value": "eliminated"}, {"measurement": "inhibition of mTORC1 activity by Bi2 (effect of HMB supplementation)", "setting": "mTORC1", "value": "time dependently counteracted"}, {"measurement": "IL-17A production in Bi2-treated CD4+ memory T cells (effect of added substance)", "setting": "[4]; [9]", "value": "partially reversed; also recorded: resolved"}, {"measurement": "IFN-γ production by CD4+ memory T cells", "setting": "[4]", "value": "not affected; also recorded: did not affect"}, {"measurement": "HIF-1α degradation rate", "setting": "HIF-1α [1]; 24 h Bi2 pretreatment, cycloheximide chase, with or without HMB", "value": "did not affect"}, {"measurement": "HIF-1α expression reduced by Bi2 (effect of added substance)", "setting": "HIF-1α [1]", "value": "abrogates this attenuation; also recorded: reversed; also recorded: increased"}]}, {"smiles": "CC(C)C[C@H](N)CC(=O)O", "note": "[LβhL, L-β-homoleucine]", "values": [{"measurement": "CD4+ T-cells producing IL-17A in spinal cord infiltrates and draining LN", "setting": "EAE mice; [10]", "value": "significantly reduced"}, {"measurement": "HIF-1α expression in CD4+ T-cells of spinal cord (intracellular staining)", "setting": "EAE mice; [10]", "value": "decreased"}, {"measurement": "cell infiltration in spinal cord", "setting": "EAE mice; [10]", "value": "significantly lower"}, {"measurement": "nerve damage, spinal cord histology", "setting": "EAE mice; [10]", "value": "significantly lower"}, {"measurement": "EAE clinical score / severity", "setting": "EAE mice; i.p. three times a week for 14 days, Bi2 10 mg/kg, LβhL 1 g/kg", "value": "attenuated; also recorded: improves EAE induction"}, {"measurement": "3H-leucine uptake", "setting": "[2]", "value": "competitively inhibited"}, {"measurement": "IL-17A production by CD4+ memory T cells", "setting": "[4]", "value": "preferentially reduced; also recorded: attenuates"}, {"measurement": "proliferation (CFSE dilution)", "setting": "[5]", "value": "did not affect"}]}, {"smiles": "Cc1ncsc1-c1ccc(CNC(=O)[C@@H]2C[C@@H](O)CN2C(=O)[C@@H](NC(=O)C2(C#N)CC2)C(C)(C)C)cc1", "note": "[VH298]", "values": [{"measurement": "IL-17A production in Bi2-treated CD4+ memory T cells (effect of added substance)", "setting": "[4]", "value": "restores; also recorded: fully restored"}, {"measurement": "IFN-γ production by CD4+ memory T cells", "setting": "[4]", "value": "did not affect"}, {"measurement": "HIF-1α expression reduced by Bi2 (effect of added substance)", "setting": "HIF-1α [1]", "value": "none of these inhibitors affected"}, {"measurement": "HIF-1α protein expression", "setting": "HIF-1α [1]", "value": "accumulation of HIF-1α"}]}, {"smiles": "CC(C)C[C@@H](C=O)NC(=O)[C@H](CC(C)C)NC(=O)[C@H](CC(C)C)NC(=O)OCc1ccccc1", "note": "[MG132] (Cbz-Leu-Leu-Leu-aldehyde)", "values": [{"measurement": "HIF-1α expression reduced by Bi2 (effect of added substance)", "setting": "HIF-1α [1]", "value": "none of these inhibitors affected"}, {"measurement": "HIF-1α protein expression", "setting": "HIF-1α [1]", "value": "accumulation of HIF-1α"}]}]}
